Reference: the supplement of paper PMC10307832

Experiments:
Assay in all cases: relative viability (nuclei count vs DMSO), 5 days (fraction); higher = more cells survive
NCI-H1755 = test system: NCI-H1755
Summary of the method: (§1)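 A single step with final 0.05% Triton X-100, 1% formaldehyde and 1 ug/ml Hoechst fixed the cells and stained nuclei 5 days after treatment. Lung cancer cell lines in 1536-well plates had been treated by pin tool the day after seeding with one drug alone or a fixed anchor-drug dose plus five library-drug doses (not always all listed) in √10 steps, and nuclei were counted on 4× images. Relative viability is the ratio of nuclei in treated wells to nuclei in vehicle wells, taken as the median of duplicate plates.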

PC-3 [JPC-3] = test system: PC-3 [JPC-3]
Summary of the method: as §1

RERF-LC-KJ = test system: RERF-LC-KJ
Summary of the method: as §1

LU99A = test system: LU99A
Summary of the method: as §1

HCC-78 = test system: HCC-78
Summary of the method: as §1

NCI-H3122 = test system: NCI-H3122
Summary of the method: as §1

NCI-H1793 = test system: NCI-H1793
Summary of the method: as §1

NCI-H1944 = test system: NCI-H1944
Summary of the method: as §1

NCI-H1395 = test system: NCI-H1395
Summary of the method: as §1

ChaGo-K-1 = test system: ChaGo-K-1
Summary of the method: as §1

HCC-366 = test system: HCC-366
Summary of the method: as §1

NCI-H2087 = test system: NCI-H2087
Summary of the method: as §1

LOU-NH91 = test system: LOU-NH91
Summary of the method: as §1

CAL-12T = test system: CAL-12T
Summary of the method: as §1

NCI-H2405 = test system: NCI-H2405
Summary of the method: as §1

NCI-H2228 = test system: NCI-H2228
Summary of the method: as §1

LC-2-ad = test system: LC-2-ad
Summary of the method: as §1

UMC-11 = test system: UMC-11
Summary of the method: as §1

NCI-H2170 = test system: NCI-H2170
Summary of the method: as §1

ABC-1 = test system: ABC-1
Summary of the method: as §1

NCI-H1651 = test system: NCI-H1651
Summary of the method: as §1

NCI-H460 = test system: NCI-H460
Summary of the method: as §1

Structure (SMILES): CCN(CC)CCCCNc1ncc2cc(-c3cc(OC)cc(OC)c3)c(NC(=O)NC(C)(C)C)nc2n1 + COc1cc2c(Oc3ccc(NC(=O)C4(C(=O)Nc5ccc(F)cc5)CC4)cc3F)ccnc2cc1OCCCN1CCOCC1 [Foretinib] (partner 0.25 µM)
- relative viability (NCI-H1755; first compound 0.01 µM): 0.986
- relative viability (NCI-H1755; first compound 0.03162 µM): 0.92
- relative viability (NCI-H1755; first compound 0.1 µM): 0.969
- relative viability (NCI-H1755; first compound 0.3162 µM): 0.936
- relative viability (NCI-H1755; first compound 1 µM): 0.882
- relative viability (PC-3 [JPC-3]; first compound 0.01 µM): 1.08
- relative viability (PC-3 [JPC-3]; first compound 0.03162 µM): 1.07
- relative viability (PC-3 [JPC-3]; first compound 0.1 µM): 1.13
- relative viability (PC-3 [JPC-3]; first compound 0.3162 µM): 1.16
- relative viability (PC-3 [JPC-3]; first compound 1 µM): 1.04
- relative viability (RERF-LC-KJ; first compound 0.01 µM): 0.893
- relative viability (RERF-LC-KJ; first compound 0.03162 µM): 0.901
- relative viability (RERF-LC-KJ; first compound 0.1 µM): 0.871
- relative viability (RERF-LC-KJ; first compound 0.3162 µM): 0.872
- relative viability (RERF-LC-KJ; first compound 1 µM): 0.941
- relative viability (LU99A; first compound 0.01 µM): 0.828
- relative viability (LU99A; first compound 0.03162 µM): 0.888
- relative viability (LU99A; first compound 0.1 µM): 0.91
- relative viability (LU99A; first compound 0.3162 µM): 0.867
- relative viability (LU99A; first compound 1 µM): 0.782
- relative viability (HCC-78; first compound 0.01 µM): 0.583
- relative viability (HCC-78; first compound 0.03162 µM): 0.53
- relative viability (HCC-78; first compound 0.1 µM): 0.586
- relative viability (HCC-78; first compound 0.3162 µM): 0.55
- relative viability (HCC-78; first compound 1 µM): 0.56
- relative viability (NCI-H3122; first compound 0.01 µM): 0.967
- relative viability (NCI-H3122; first compound 0.03162 µM): 0.927
- relative viability (NCI-H3122; first compound 0.1 µM): 1.08
- relative viability (NCI-H3122; first compound 0.3162 µM): 1.05
- relative viability (NCI-H3122; first compound 1 µM): 1.02
- relative viability (NCI-H1793; first compound 0.01 µM): 0.734
- relative viability (NCI-H1793; first compound 0.03162 µM): 0.759
- relative viability (NCI-H1793; first compound 0.1 µM): 0.716
- relative viability (NCI-H1793; first compound 0.3162 µM): 0.676
- relative viability (NCI-H1793; first compound 1 µM): 0.403
- relative viability (NCI-H1944; first compound 0.01 µM): 0.848
- relative viability (NCI-H1944; first compound 0.03162 µM): 0.873
- relative viability (NCI-H1944; first compound 0.1 µM): 0.844
- relative viability (NCI-H1944; first compound 0.3162 µM): 0.946
- relative viability (NCI-H1944; first compound 1 µM): 0.771
- relative viability (NCI-H1395; first compound 0.01 µM): 0.999
- relative viability (NCI-H1395; first compound 0.03162 µM): 1.02
- relative viability (NCI-H1395; first compound 0.1 µM): 0.912
- relative viability (NCI-H1395; first compound 0.3162 µM): 0.887
- relative viability (NCI-H1395; first compound 1 µM): 0.818
- relative viability (ChaGo-K-1; first compound 0.01 µM): 0.903
- relative viability (ChaGo-K-1; first compound 0.03162 µM): 1.05
- relative viability (ChaGo-K-1; first compound 0.1 µM): 0.936
- relative viability (ChaGo-K-1; first compound 0.3162 µM): 0.956
- relative viability (ChaGo-K-1; first compound 1 µM): 0.757
- relative viability (HCC-366; first compound 0.01 µM): 0.951
- relative viability (HCC-366; first compound 0.03162 µM): 0.941
- relative viability (HCC-366; first compound 0.1 µM): 1.05
- relative viability (HCC-366; first compound 0.3162 µM): 0.981
- relative viability (HCC-366; first compound 1 µM): 0.999
- relative viability (NCI-H2087; first compound 0.01 µM): 1.25
- relative viability (NCI-H2087; first compound 0.03162 µM): 1.13
- relative viability (NCI-H2087; first compound 0.1 µM): 1.45
- relative viability (NCI-H2087; first compound 0.3162 µM): 1.16
- relative viability (NCI-H2087; first compound 1 µM): 1.21
- relative viability (LOU-NH91; first compound 0.01 µM): 0.927
- relative viability (LOU-NH91; first compound 0.03162 µM): 0.916
- relative viability (LOU-NH91; first compound 0.1 µM): 0.959
- relative viability (LOU-NH91; first compound 0.3162 µM): 0.977
- relative viability (LOU-NH91; first compound 1 µM): 0.912
- relative viability (CAL-12T; first compound 0.01 µM): 1.13
- relative viability (CAL-12T; first compound 0.03162 µM): 1.2
- relative viability (CAL-12T; first compound 0.1 µM): 1.35
- relative viability (CAL-12T; first compound 0.3162 µM): 1.23
- relative viability (CAL-12T; first compound 1 µM): 1.19
- relative viability (NCI-H2405; first compound 0.01 µM): 1.05
- relative viability (NCI-H2405; first compound 0.03162 µM): 1.05
- relative viability (NCI-H2405; first compound 0.1 µM): 1.03
- relative viability (NCI-H2405; first compound 0.3162 µM): 1.07
- relative viability (NCI-H2405; first compound 1 µM): 1.04
- relative viability (NCI-H2228; first compound 0.01 µM): 1.03
- relative viability (NCI-H2228; first compound 0.03162 µM): 1.01
- relative viability (NCI-H2228; first compound 0.1 µM): 1.35
- relative viability (NCI-H2228; first compound 0.3162 µM): 0.998
- relative viability (NCI-H2228; first compound 1 µM): 0.635
- relative viability (LC-2-ad; first compound 0.01 µM): 1.09
- relative viability (LC-2-ad; first compound 0.03162 µM): 0.998
- relative viability (LC-2-ad; first compound 0.1 µM): 1.11
- relative viability (LC-2-ad; first compound 0.3162 µM): 0.951
- relative viability (LC-2-ad; first compound 1 µM): 0.966
- relative viability (UMC-11; first compound 0.01 µM): 0.952
- relative viability (UMC-11; first compound 0.03162 µM): 1.02
- relative viability (UMC-11; first compound 0.1 µM): 1.14
- relative viability (UMC-11; first compound 0.3162 µM): 1.19
- relative viability (UMC-11; first compound 1 µM): 1.02
- relative viability (NCI-H2170; first compound 0.01 µM): 0.929
- relative viability (NCI-H2170; first compound 0.03162 µM): 1.05
- relative viability (NCI-H2170; first compound 0.1 µM): 0.961
- relative viability (NCI-H2170; first compound 0.3162 µM): 1.08
- relative viability (NCI-H2170; first compound 1 µM): 0.999
- relative viability (ABC-1; first compound 0.01 µM): 1.22
- relative viability (ABC-1; first compound 0.03162 µM): 0.951
- relative viability (ABC-1; first compound 0.1 µM): 1.3
- relative viability (ABC-1; first compound 0.3162 µM): 1.14
- relative viability (ABC-1; first compound 1 µM): 1.16
- relative viability (NCI-H1651; first compound 0.01 µM): 0.789
- relative viability (NCI-H1651; first compound 0.03162 µM): 0.949
- relative viability (NCI-H1651; first compound 0.1 µM): 0.82
- relative viability (NCI-H1651; first compound 0.3162 µM): 0.761
- relative viability (NCI-H1651; first compound 1 µM): 0.748
- relative viability (NCI-H460; first compound 0.01 µM): 0.972
- relative viability (NCI-H460; first compound 0.03162 µM): 1.13
- relative viability (NCI-H460; first compound 0.1 µM): 1.03
- relative viability (NCI-H460; first compound 0.3162 µM): 1.04
- relative viability (NCI-H460; first compound 1 µM): 1.18
